The results in this text go back to patent publication US8637013B2, “Treatment of drug-related side effect and tissue damage by targeting the CD24-HMGB1-Siglec10 axis” (The Regents of The University of Michigan, priority 2009, dated 2014).

No end group written: not given here.

For test [1], the target named is T1, CD24-Siglec 10 interaction (Homo sapiens, UniProt Q96LC7).
T1 construct: Recombinant protein consisting of human IgG Fc and extracellular domains of Siglec 10; purchased R&D Systems
T1 sequence (Q96LC7 17-550 limits assumed): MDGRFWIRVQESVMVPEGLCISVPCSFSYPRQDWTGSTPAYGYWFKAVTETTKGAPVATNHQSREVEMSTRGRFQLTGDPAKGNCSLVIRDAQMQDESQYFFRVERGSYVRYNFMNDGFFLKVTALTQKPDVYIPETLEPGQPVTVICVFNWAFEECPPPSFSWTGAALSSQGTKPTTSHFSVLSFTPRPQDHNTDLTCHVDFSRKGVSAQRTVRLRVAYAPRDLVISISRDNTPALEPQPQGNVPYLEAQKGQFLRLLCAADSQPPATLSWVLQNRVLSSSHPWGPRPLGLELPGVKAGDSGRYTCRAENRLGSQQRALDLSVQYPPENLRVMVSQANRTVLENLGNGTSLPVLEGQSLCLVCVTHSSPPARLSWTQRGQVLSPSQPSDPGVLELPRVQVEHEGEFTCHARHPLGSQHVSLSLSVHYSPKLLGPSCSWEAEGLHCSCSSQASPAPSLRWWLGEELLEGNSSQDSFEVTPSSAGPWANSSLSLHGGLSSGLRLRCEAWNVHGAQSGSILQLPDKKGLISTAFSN
The test is described as follows: Inhibition of CD24-Siglec 10 interaction by sialosides (microplate binding assay). Particulars: for Inhibition of CD24-Siglec 10 interaction: Siglec 10Fc preincubated with sialoside, then added to plate-bound CD24Fc.

Test [2] deals with sialidase activity in the sera of sepsis mice. Kind of test: Serum sialidase activity of CLP mice (Amplex Red Neuraminidase assay kit). Format: biochemical, mouse. The conditions noted are these: sera from CLP mice mixed with inhibitors prior to the assay.
The subject of test [3] is AAP-induced liver damage in WT B6 mice. The test is described as follows: AAP-induced liver damage in WT mice treated with CD24Fc. Particulars: AAP 16 mg/mouse, 5 hours after AAP, vs control IgG Fc. Format: in vivo.
Test [4] has as its target T2, HMGB1 (Homo sapiens, UniProt P09429).
T2 construct: the full-length HMGB-1 expression vector was transfected into TSA cells; FLAG; made in house; host or cells: TSA cells (purified protein)
T2 sequence (P09429 1-215): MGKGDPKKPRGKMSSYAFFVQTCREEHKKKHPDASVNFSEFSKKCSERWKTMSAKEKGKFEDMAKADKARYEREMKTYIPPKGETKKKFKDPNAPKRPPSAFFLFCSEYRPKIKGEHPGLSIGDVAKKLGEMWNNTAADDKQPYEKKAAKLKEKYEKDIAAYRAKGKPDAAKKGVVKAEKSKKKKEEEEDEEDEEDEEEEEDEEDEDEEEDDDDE
The test is described as follows: Co-immunoprecipitation of HMGB1 with CD24-Fc. Particulars: vs control IgG-Fc; cation-dependent. Format: binding.

Test [5] deals with HMGB1. Kind of test: Co-immunoprecipitation of HMGB1 with CD24-Fc. Format: binding, human. The conditions noted are these: FLAG-tagged constructs in COS7 cell lysates.

As to `CC(=O)N[C@H]1[C@H]([C@H](O)[C@H](O)CO)O[C@@](OC[C@H]2O[C@@H](O[C@H]3[C@H](O)[C@@H](O)C(O)O[C@@H]3CO)[C@H](O)[C@@H](O)[C@H]2O)(C(=O)O)C[C@@H]1O` (stereo partly drawn) [Neu5Acα2-6Lac], the “Relative potency in inhibiting CD24-Siglec 10 interaction” value in test [1] (2-6 versus 2-3 linked sialoside) is “more potent”. In addition, in test [1], the “Inhibition of CD24-Siglec 10 interaction” value is “efficient inhibition”.

Turning to `O=C(CO)N[C@H]1[C@H]([C@H](O)[C@H](O)CO)OC(C(=O)O)=C[C@@H]1O` [Neu5Gc2en, 2,3-dehydro-2-deoxy-N-glycolylneuraminic acid], the “Inhibition of sialidase activity in the serum of sepsis mice” value in test [2] is recorded as “partial inhibition”. `CC(=O)N[C@H]1[C@H]([C@H](O)[C@H](O)CO)O[C@@](O[C@H]2[C@@H](O)[C@@H](CO)O[C@@H](O[C@H]3[C@H](O)[C@@H](O)C(O)O[C@@H]3CO)[C@@H]2O)(C(=O)O)C[C@@H]1O` (stereo partly drawn) [Neu5Acα2-3Lac]: the “Inhibition of CD24-Siglec 10 interaction” value in test [1] is “efficient inhibition”. In the case of `CC(=O)N[C@@H]1C(O)C=C(C(=O)O)OC1[C@H](O)[C@H](O)CO` (stereo partly drawn) [Compound 1, 2,3-dehydro-2-deoxy-N-acetylneuraminic acid], the “Inhibition of sialidase activity in the serum of sepsis mice” value in test [2] is “minimal effect”. Turning to “CD24Fc: fusion protein that binds to HMGB1 and Siglec 10 (SETTTGTSSNSSQSTSNSGLAPNPTNATTK; not fully specified (C-terminus); also: fused to dimerising Fc (not given here))”, the “Inflammatory cytokines in serum (IL-6, IL-10, MCP-1, IFN-γ, TNF-α)” value in test [3] was “massive reduction”. In addition, the “Coimmunoprecipitation of recombinant HMGB-1” value in test [4] is “specifically coimmunoprecipitated”. Moreover, in test [5], the “Immunoprecipitation of box A-containing HMGB1 mutant” value is on record as “not the box A-containing mutant”; the “Immunoprecipitation of full length HMGB1 and box B-containing mutant” value is listed as “immunoprecipitated”.
